The test system of this assay is PAF-induced lethality in CD1 male mice. As to the kind of experiment: PAF lethality assay. To be noted: Mus musculus; positive control; oral dosing 45 minutes before i.v. PAF injection; mortality compared to controls; read-out: approximate ED 50. Type of assay: in vivo. Here is the method: To evaluate the compounds of the formula (I) in vivo, they are tested by the so-called PAF lethality assay procedure:
Mice: CD1 males, all approximately the same weight (approximately 26 grams), 12 per group.
Vehicle for oral drug dosing: EES (5% ethanol, 5% emulphor, 90% saline). Stored at room temperature.
Drugs: For routine screening at 50 mg/kg, 20 mg drug is dissolved in 4 ml EES, using sonication in a sonicator bath or grinding in a Ten Broeck grinder to dissolve drug if necessary. If solubility is still a problem, the drug is used as a suspension.
Vehicle for i.v. Injection: Saline with 2.5 mg/ml Bovine Serum Albumin (BSA, Sigma #A4378) and 0.05 mg/ml Propranolol (Sigma #P0884). Prepared fresh daily and kept at room temperature.
Platelet Activating Factor (PAF): A […] stock solution is prepared by dissolving 1 mg PAF (Calbiochem #429460) in 0.18 ml ethanol. This is stored at -20° C. and is diluted in vehicle (see above) the day of use. The concentration of PAF used is calibrated so that when injected at 0.1 ml/10 grams body weight, it will kill approximately 80% of untreated controls. This is usually about […] (a 1 to 2034 dilution from stock). […]
45 minutes before PAF injection, mice are treated orally with drug using 0.1 ml/10 grams body weight. […] Results are expressed as percent mortality as compared to controls. […]

Molecules are shown by their SMILES.

Take `O=C1CCN(c2ccccc2)N1` [Phenidone]: the ED50 was roughly 25 mg/kg.

The record behind these values is patent US5698550A, “Tetralin and chroman derivatives useful in the treatment of asthma, arthritis and related diseases” (Pfizer Inc., priority 1993, dated 1997).
